Entries after “also recorded” stand apart in the source; their conditions may differ.
Legend:
Assay type in all cases: biochemical
[1] = test system: SARS-COV-2 total protease; experiment: High throughput FRET screening of fluorogenic dipeptide substrates; details: for Relative fluorescence (change in the fluorescence signal in the presence of SARS-COV-2 protease): relative to FITC-Ahx-H-d-K(Dabcyl) = 100, ex 485 nm, em 535 nm; for Relative fluorescence (change in the fluorescence signal in the presence of SARS-COV-2 protease) / Fluorescence intensity increase relative to H-d peptide: 37° C.; for Fluorescence intensity increase relative to H-d peptide: H-d set as relative scale of 100%
[2] = test system: SARS-COV-2 live virus (protease); experiment: Real-time fluorescence kinetics and detection limit of FRET substrate with live virus
[3] = test system: MERS-COV protease (viral particles)

Substance | Relative fluorescence (change in the fluorescence signal in the presence of SARS-COV-2 protease) [1] | other results
FITC-Ahx-E-d-K(Dabcyl) | 58 | –
FITC-Ahx-F-R-K(Dabcyl) | 82 | Fluorescence intensity increase relative to H-d peptide [1]: 82%
FITC-Ahx-H-d-K(Dabcyl) | 100 | Change in the fluorescence signal of the substrate [2]: no significant change; Fraction of the reaction completed within 30 minutes [2]: more than 50%; Time after which the fluorescence curve plateaus [2]: 1.5 h; Increase in the fluorescence intensity in the presence of MERS-COV virus [3]: less than 20%; Fluorescence intensity increase relative to H-d peptide [1]: 100%
FITC-Ahx-K-K-K(Dabcyl) | 62 | –
FITC-Ahx-K-d-K(Dabcyl) | 47 | –
FITC-Ahx-P-P-K(Dabcyl) | 55 | –
FITC-Ahx-R-d-K(Dabcyl) | 67 | –
FITC-Ahx-R-h-K(Dabcyl) [reference compound] | – | Increase in the fluorescence intensity in the presence of SARS-COV-2 protease ([1]; incubated at 37° C., after 3 hours): insignificant increase; also recorded: very minimum fluorescence change

Reference: patent US10962529B1 (priority 2020, dated 2021)
